Laboratory results from patent publication US20250289814A1, “COMPOUNDS AS PARP1 INHIBITIORS” (NINGBO NEWBAY TECHNOLOGY DEVELOPMENT CO., LTD., priority 2022, published 2025).
Like-named read-outs stand apart in the source and are kept apart here.

Columns and labels:
Caco-2 cell monolayers = assay: Caco2 (A-B/B-A) permeability; type: in vitro ADME
Procedure: (§1) The apical-to-basolateral (A-B) and basolateral-to-apical (B-A) transport of 5 μM test compounds in HBSS (10 mM HEPES, pH 7.4) was measured across Caco-2 cell monolayers (cells sourced from American Type Culture Collection, Manassas, Virgina). Duplicate incubations were performed at approximately 37° C. for 120 min, with functionality of the test system confirmed using 5 μM propranolol and digoxin as control compounds. Aliquots (50 μL) from both apical and basolateral wells were transferred into two fresh 96-well plates and quenched with acetonitrile solution containing analytical internal standards. Samples were vortexed mixed, centrifuged and a 100 μL aliquot of the resulting supernatant mixed with an equal volume of ultra-pure water prior to analysis by UPLC-MS/MS. The concentrations of test compound and control compounds in the incubation medium of donor and receiver compartments at the beginning and the end of the incubation period were used to calculate the apparent permeability (Papp) from A-B and B-A directions. The efflux ratio (ER) was expressed as PappB-A/PappA-B. The integrity of the cell monolayers after 2 hours incubation was confirmed using the marker reagent Lucifer yellow.

DLD1-BRCA2−/− cells = assay: Cell proliferation assay in DLD1-BRCA2−/− cell lines (CellTiter-Glo, 7 days); type: cell-based
Procedure: BRCA2 (−/−) cells cultured in RPMI 1640+10% FBS were harvested and diluted to a density of 1×10^4 cells/mL and 2×10^4 cells/mL, respectively. Cells (40 μL/well) were seeded into 384-well cell culture plates. Plates were covered and incubated at 37° C., 5% CO2 overnight prior to the addition of test compounds or vehicle. The plates were then incubated at 37° C., 5% CO2 for 7 days. On day 8, the plates were removed from incubator and equilibrated at room temperature for 15 minutes. CellTiter-Glo (40 μL, at 1:1 to culture medium) is added into each well and the plates were placed at room temperature for 30 min. Luminescence was measured using an Envision plate reader. The resultant data were analysed as follows; where LC is culture medium without cells:
% inhibition values for different test compound concentrations were calculated and fitted to a four parameter logistic plot in order to determine the IC50 value using XLfit

[1] = target: Recombinant full length PARP1 (Homo sapiens (Human), UniProt P09874); assay: FP assay PARP1 (fluorescence anisotropy probe displacement); type: binding; settings: 20 nM PARP1, 8 nM fluorescent probe, 4 h, room temperature
Procedure: (§2) FP experiments were carried out at room temperature using no-binding black 384-well microplates. Recombinant full length PARP1 and PARP2 proteins produced in house were diluted to 20 nM and 60 nM, respectively, with assay buffer (50 mM Tris pH 8, 0.001% Triton X100, 10 mM MgCl2, and 150 mM NaCl) and incubated for 4 h with an equivalent volume of the 8 nM fluorescent probe diluted with assay buffer. Fluorescence anisotropy of the probe when bound to the proteins was measured in the presence of test compounds or solvent control and the effect on anisotropy determined. Polarization values were read using an Envision plate reader using excitation and emission wavelengths of 590 and 630 nm, respectively. All FP values are expressed as mP units. Inhibition ratio was calculated using readout (mP) following the equation as below: […]
(§3) % inhibition values for different test compound concentrations were calculated and fitted to a four parameter logistic plot in order to determine the IC50 value using XLfit.

[2] = Caco2 (A-B/B-A) permeability; type: in vitro ADME; settings: human; for efflux ratio at 120 min, 5 μM: Caco-2, pH 7.4, PappB-A/PappA-B, read-out: Caco2 efflux ratio (ER); for Papp A→B at 120 min, 5 μM: Caco-2, pH 7.4, apical-to-basolateral, read-out: Caco2 A-B apparent permeability (Papp); for Papp A→B at 120 min, 5 μM / Papp B→A at 120 min, 5 μM: HBSS pH 7.4, 120 min, 37° C.; for Papp B→A at 120 min, 5 μM: Caco-2, pH 7.4, basolateral-to-apical, read-out: Caco2 B-A apparent permeability (Papp)
Procedure: as §1

[3] = target: Recombinant full length PARP2 (Homo sapiens (Human), UniProt Q9UGN5); assay: FP assay PARP2 (fluorescence anisotropy probe displacement); type: binding; settings: 60 nM PARP2, 8 nM fluorescent probe, 4 h, room temperature
Procedure: as §2, §3

Recombinant full length PARP1, sequence (P09874 whole entry): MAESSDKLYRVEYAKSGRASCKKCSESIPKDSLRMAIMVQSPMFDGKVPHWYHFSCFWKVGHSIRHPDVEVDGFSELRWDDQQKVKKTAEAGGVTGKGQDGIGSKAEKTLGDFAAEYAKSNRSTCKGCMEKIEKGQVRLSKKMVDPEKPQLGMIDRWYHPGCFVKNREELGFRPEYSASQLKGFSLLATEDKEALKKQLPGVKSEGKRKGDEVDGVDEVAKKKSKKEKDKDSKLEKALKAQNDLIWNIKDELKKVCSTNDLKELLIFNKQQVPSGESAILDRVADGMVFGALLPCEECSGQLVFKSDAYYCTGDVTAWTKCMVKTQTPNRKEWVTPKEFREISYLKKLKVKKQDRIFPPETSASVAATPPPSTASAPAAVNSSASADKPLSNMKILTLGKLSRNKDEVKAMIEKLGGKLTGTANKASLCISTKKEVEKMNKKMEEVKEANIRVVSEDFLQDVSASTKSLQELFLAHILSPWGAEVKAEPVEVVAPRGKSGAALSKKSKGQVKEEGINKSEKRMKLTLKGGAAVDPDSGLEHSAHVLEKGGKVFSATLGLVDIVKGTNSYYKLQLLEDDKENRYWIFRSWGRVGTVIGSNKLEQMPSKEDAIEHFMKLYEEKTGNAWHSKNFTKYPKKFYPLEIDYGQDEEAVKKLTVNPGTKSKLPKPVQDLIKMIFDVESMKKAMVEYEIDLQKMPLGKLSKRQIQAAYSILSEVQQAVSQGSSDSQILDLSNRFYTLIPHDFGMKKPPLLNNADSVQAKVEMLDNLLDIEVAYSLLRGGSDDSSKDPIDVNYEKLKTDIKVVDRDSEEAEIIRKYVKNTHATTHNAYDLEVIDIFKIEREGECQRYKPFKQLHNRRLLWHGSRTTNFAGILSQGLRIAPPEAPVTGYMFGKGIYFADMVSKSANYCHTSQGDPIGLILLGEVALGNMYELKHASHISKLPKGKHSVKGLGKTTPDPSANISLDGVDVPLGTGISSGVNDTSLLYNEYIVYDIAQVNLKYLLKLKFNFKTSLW
Recombinant full length PARP2, sequence (Q9UGN5 whole entry): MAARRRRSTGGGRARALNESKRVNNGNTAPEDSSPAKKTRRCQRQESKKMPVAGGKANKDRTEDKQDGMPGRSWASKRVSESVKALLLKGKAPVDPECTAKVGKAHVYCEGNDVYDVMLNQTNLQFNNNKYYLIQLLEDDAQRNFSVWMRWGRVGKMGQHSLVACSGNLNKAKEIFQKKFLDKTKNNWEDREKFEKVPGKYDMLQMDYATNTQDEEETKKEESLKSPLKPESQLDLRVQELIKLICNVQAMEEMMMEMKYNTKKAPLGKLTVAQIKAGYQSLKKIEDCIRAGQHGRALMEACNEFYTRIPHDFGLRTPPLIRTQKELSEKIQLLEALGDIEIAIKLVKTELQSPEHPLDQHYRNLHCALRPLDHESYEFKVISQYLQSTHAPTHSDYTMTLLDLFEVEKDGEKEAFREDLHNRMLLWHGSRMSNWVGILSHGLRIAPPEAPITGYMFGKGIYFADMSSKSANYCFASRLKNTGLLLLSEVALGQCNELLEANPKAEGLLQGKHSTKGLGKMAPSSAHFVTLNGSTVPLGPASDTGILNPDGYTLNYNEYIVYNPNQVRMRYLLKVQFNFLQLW

CCc1cc2ncc([C@H](C)N3CC[C@@H](Oc4ccc(C(=O)NC)nc4)C3)cc2[nH]c1=O (single isomer, unassigned) [Compound 13, 5-(((R)-1-((enantiomer 1 or 2)-1-(7-ethyl-6-oxo-5,6-dihydro-1,5-naphthyridin-3-yl)ethyl)pyrrolidin-3-yl)oxy)-N-methylpicolinamide]
Caco2 efflux ratio (ER) (Caco-2 cell monolayers; PappB-A/PappA-B): (ER = 7.91) | Caco2 A-B apparent permeability (Papp) (Caco-2 cell monolayers; apical-to-basolateral, 5 μM, HBSS pH 7.4, 120 min, 37° C.): 3.85 10*−6 cm/s | Caco2 B-A apparent permeability (Papp) (Caco-2 cell monolayers; basolateral-to-apical, 5 μM, HBSS pH 7.4, 120 min, 37° C.): 30.43 10*−6 cm/s | IC50 (DLD1-BRCA2−/− cells): 0.0295 µM

CCc1nc2ccc([C@H](C)N3CC(Oc4ccc(C(=O)NC)nc4)C3)cc2[nH]c1=O (single isomer, unassigned) [Compound 52, (enantiomer 1 or 2)-5-((1-(1-(2-ethyl-3-oxo-3,4-dihydroquinoxalin-6-yl)ethyl)azetidin-3-yl)oxy)-N-methylpicolinamide]
IC50 [1]: 0.0352 µM | efflux ratio at 120 min, 5 μM [2]: 2.09 | Papp A→B at 120 min, 5 μM [2]: 14.9 ×10⁻⁶ cm/s | Papp B→A at 120 min, 5 μM [2]: 31.2 ×10⁻⁶ cm/s | IC50 (DLD1-BRCA2−/− cells; Homo sapiens, DLD-1, 168 h): 0.0189 µM | IC50 [3]: > 10 µM

CCc1cc2ncc([C@@H](C)N3CC(Oc4ccc(C(=O)NC)nc4F)C3)cc2[nH]c1=O (single isomer, unassigned; enantiomer 1) [Compound 45, (enantiomer 1)-5-((1-(1-(7-ethyl-6-oxo-5,6-dihydro-1,5-naphthyridin-3-yl)ethyl)azetidin-3-yl)oxy)-6-fluoro-N-methylpicolinamide]
IC50 [1]: 0.0064 µM | efflux ratio at 120 min, 5 μM [2]: 10.5 | Papp A→B at 120 min, 5 μM [2]: 4.18 ×10⁻⁶ cm/s | Papp B→A at 120 min, 5 μM [2]: 43.9 ×10⁻⁶ cm/s | IC50 (DLD1-BRCA2−/− cells): 0.0693 µM | IC50 [3]: 0.365 µM

CCc1cc2cnc([C@H](C)N3CC(Oc4ccc(C(=O)NC)nc4F)C3)cc2[nH]c1=O (single isomer, unassigned; enantiomer 1) [Compound 49, (enantiomer 1)-5-((1-(1-(3-ethyl-2-oxo-1,2-dihydro-1,6-naphthyridin-7-yl)ethyl)azetidin-3-yl)oxy)-6-fluoro-N-methylpicolinamide]
IC50 [1]: 0.0145 µM | efflux ratio at 120 min, 5 μM [2]: 8.64 | Papp A→B at 120 min, 5 μM [2]: 3.46 ×10⁻⁶ cm/s | Papp B→A at 120 min, 5 μM [2]: 29.9 ×10⁻⁶ cm/s | IC50 (DLD1-BRCA2−/− cells; Homo sapiens, DLD-1, 168 h): 0.0057 µM | IC50 [3]: > 10 µM

CCc1cc2ncc(CN3CC(Oc4cnc(C(=O)NC)c(F)c4)C3)cc2[nH]c1=O [Compound 2, 5-((1-((7-ethyl-6-oxo-5,6-dihydro-1,5-naphthyridin-3-yl)methyl)azetidin-3-yl)oxy)-3-fluoro-N-methylpicolinamide]
IC50 [1]: 0.0077 µM | efflux ratio at 120 min, 5 μM [2]: 19.2 | Papp A→B at 120 min, 5 μM [2]: 1.47 ×10⁻⁶ cm/s | Papp B→A at 120 min, 5 μM [2]: 28.3 ×10⁻⁶ cm/s | IC50 (DLD1-BRCA2−/− cells; Homo sapiens, DLD-1, 168 h): 0.288 µM | IC50 [3]: > 10 µM

CNC(=O)c1ccc(OC2CN(Cc3cnc4cc(C5CC5)c(=O)[nH]c4c3)C2)cn1 [Compound 6, 5-((1-((7-cyclopropyl-6-oxo-5,6-dihydro-1,5-naphthyridin-3-yl)methyl)azetidin-3-yl)oxy)-N-methylpicolinamide]
IC50 [1]: 0.007 µM | efflux ratio at 120 min, 5 μM [2]: 9.29 | Papp A→B at 120 min, 5 μM [2]: 3.32 ×10⁻⁶ cm/s | Papp B→A at 120 min, 5 μM [2]: 30.8 ×10⁻⁶ cm/s | IC50 (DLD1-BRCA2−/− cells; Homo sapiens, DLD-1, 168 h): 0.0621 µM | IC50 [3]: > 10 µM

CCc1cc2ncc(CN3C[C@@H](F)[C@@H](Oc4ccc(C(=O)NC)nc4)C3)cc2[nH]c1=O [Compound 8, 5-(((3S, 4R)-1-((7-ethyl-6-oxo-5,6-dihydro-1,5-naphthyridin-3-yl)methyl)-4-fluoropyrrolidin-3-yl)oxy)-N-methylpicolinamide]
IC50 [1]: 0.0038 µM | efflux ratio at 120 min, 5 μM [2]: 11.8 | Papp A→B at 120 min, 5 μM [2]: 2.45 ×10⁻⁶ cm/s | Papp B→A at 120 min, 5 μM [2]: 28.8 ×10⁻⁶ cm/s | IC50 (DLD1-BRCA2−/− cells; Homo sapiens, DLD-1, 168 h): 0.0511 µM | IC50 [3]: > 10 µM

CCc1cc2ncc(CN3CCC(Nc4ccc(C(=O)NC)nc4)C3)cc2[nH]c1=O (stereo not shown) [Compound 10, 5-((1-((7-ethyl-6-oxo-5,6-dihydro-1,5-naphthyridin-3-yl)methyl)pyrrolidin-3-yl)amino)-N-methylpicolinamide]
IC50 [1]: 0.0031 µM | efflux ratio at 120 min, 5 μM [2]: 39.1 | Papp A→B at 120 min, 5 μM [2]: 0.57 ×10⁻⁶ cm/s | Papp B→A at 120 min, 5 μM [2]: 22.4 ×10⁻⁶ cm/s | IC50 (DLD1-BRCA2−/− cells; Homo sapiens, DLD-1, 168 h): 0.0115 µM | IC50 [3]: > 10 µM

CCc1cc2ncc(CN3CC[C@@H](Oc4ccc(C(=O)NC)nc4)C3)cc2[nH]c1=O [Compound 11, (R)-5-((1-((7-ethyl-6-oxo-5,6-dihydro-1,5-naphthyridin-3-yl)methyl)pyrrolidin-3-yl)oxy)-N-methylpicolinamide]
IC50 [1]: 0.0048 µM | efflux ratio at 120 min, 5 μM [2]: 9.69 | Papp A→B at 120 min, 5 μM [2]: 4.13 ×10⁻⁶ cm/s | Papp B→A at 120 min, 5 μM [2]: 40 ×10⁻⁶ cm/s | IC50 (DLD1-BRCA2−/− cells; Homo sapiens, DLD-1, 168 h): 0.006 µM | IC50 [3]: > 10 µM

CCc1nc2ccc(C(C)N3CC(Oc4ccc(C(=O)NC)nc4)C3)cc2[nH]c1=O (stereo not shown) [Compound 20, 5-((1-(1-(2-ethyl-3-oxo-3,4-dihydroquinoxalin-6-yl)ethyl)azetidin-3-yl)oxy)-N-methylpicolinamide]
IC50 [1]: 0.0148 µM | efflux ratio at 120 min, 5 μM [2]: 2.16 | Papp A→B at 120 min, 5 μM [2]: 11.8 ×10⁻⁶ cm/s | Papp B→A at 120 min, 5 μM [2]: 25.4 ×10⁻⁶ cm/s | IC50 (DLD1-BRCA2−/− cells; Homo sapiens, DLD-1, 168 h): 0.0382 µM | IC50 [3]: > 10 µM

CCc1nc2ccc(CN3CC[C@@H](Oc4ccc(C(=O)NC)nc4)C3)cc2[nH]c1=O [Compound 28, (R)-5-((1-((2-ethyl-3-oxo-3,4-dihydroquinoxalin-6-yl)methyl)pyrrolidin-3-yl)oxy)-N-methylpicolinamide]
IC50 [1]: 0.0093 µM | efflux ratio at 120 min, 5 μM [2]: 5.03 | Papp A→B at 120 min, 5 μM [2]: 6.32 ×10⁻⁶ cm/s | Papp B→A at 120 min, 5 μM [2]: 31.8 ×10⁻⁶ cm/s | IC50 (DLD1-BRCA2−/− cells; Homo sapiens, DLD-1, 168 h): 0.0576 µM | IC50 [3]: > 10 µM

CCc1cc2cnc(C(C)N3CC(Oc4ccc(C(=O)NC)nc4)C3)cc2[nH]c1=O (stereo not shown) [Compound 51, 5-((1-(1-(3-ethyl-2-oxo-1,2-dihydro-1,6-naphthyridin-7-yl)ethyl)azetidin-3-yl)oxy)-N-methylpicolinamide]
IC50 [1]: 0.0038 µM | efflux ratio at 120 min, 5 μM [2]: 6.4 | Papp A→B at 120 min, 5 μM [2]: 5.4 ×10⁻⁶ cm/s | Papp B→A at 120 min, 5 μM [2]: 34.6 ×10⁻⁶ cm/s | IC50 (DLD1-BRCA2−/− cells; Homo sapiens, DLD-1, 168 h): 0.0159 µM | IC50 [3]: 9.61 µM

CCc1cc2ncc(CN3CC[C@H](Oc4ccc(C(=O)NC)nc4)C3)cc2[nH]c1=O [Compound 58, (S)-5-((1-((7-ethyl-6-oxo-5,6-dihydro-1,5-naphthyridin-3-yl)methyl)pyrrolidin-3-yl)oxy)-N-methylpicolinamide]
IC50 [1]: 0.0447 µM | IC50 (DLD1-BRCA2−/− cells; Homo sapiens, DLD-1, 168 h): > 1 µM | IC50 [3]: > 10 µM

CCc1cc2cnc(CN3CC[C@@H](Oc4ccc(C(=O)NC)nc4)C3)cc2[nH]c1=O [Compound 63, (R)-5-((1-((3-ethyl-2-oxo-1,2-dihydro-1,6-naphthyridin-7-yl)methyl)pyrrolidin-3-yl)oxy)-N-methylpicolinamide]
IC50 [1]: 0.00703 µM | efflux ratio at 120 min, 5 μM [2]: 7.96 | Papp A→B at 120 min, 5 μM [2]: 5.35 ×10⁻⁶ cm/s | Papp B→A at 120 min, 5 μM [2]: 42.5 ×10⁻⁶ cm/s | IC50 (DLD1-BRCA2−/− cells; Homo sapiens, DLD-1, 168 h): 0.0054 µM | IC50 [3]: > 10 µM
